Laboratory results as given in ChEMBL document CHEMBL1122438, “2-Phenylpyrazolo[1,5-a]pyrimidin-7-ones. A new class of nonsteroidal antiinflammatory drugs devoid of ulcerogenic activity” (J Med Chem, 1983).
Calls of active or inactive are those of the source. No cut-off for these calls is given here.

Legend:
Mus musculus [1] = test: Percent reduction of edema in mice 3h after oral administration of 20 mg/kg in carrageenan model; type: functional
Mus musculus [2] = test: Analgesic activity evaluated by measuring % analgesic effect, after oral administration of 300 mg/kg in acetic acid writhing test; type: functional
Mus musculus [3] = test: Analgesic activity evaluated by measuring % analgesic effect, after oral administration of 500 mg/kg in acetic acid writhing test; type: functional
Mus musculus [4] = test: Acute toxicity was evaluated as number of mice (tested=7) died after 72nd hour when 170 mg/kg is administered intraperitoneally; type: organism-based; design: dose 170 mg/kg, route intraperitoneal; conditions: in vivo, ip
Mus musculus [5] = test: Acute toxicity was evaluated as number of mice (tested=7) died after 72nd hour when 225 mg/kg is administered intraperitoneally; type: organism-based; design: dose 225 mg/kg, route intraperitoneal; conditions: in vivo, ip
Mus musculus [6] = test: Acute toxicity was evaluated as number of mice (tested=7) died after 72nd hour when 300 mg/kg is administered intraperitoneally; type: organism-based; design: dose 300 mg/kg, route intraperitoneal; conditions: in vivo, ip
Mus musculus [7] = test: Acute toxicity was evaluated as number of mice (tested=7) died after 72nd hour when 350 mg/kg is administered intraperitoneally; type: organism-based; design: dose 350 mg/kg, route intraperitoneal; conditions: in vivo, ip
[8] = Toxic activity is expressed as LD50 values; type: toxicity, organism-based; conditions: mouse, in vivo
[9] = Therapeutic index was expressed as LD50/ED50 carragreenin model; conditions: mouse; read-out: TI
Rattus norvegicus [10] = species on record: Rattus norvegicus; test: Analgesic activity in acetic acid writhing test, activity is expressed as ED50 values; type: functional
Rattus norvegicus [11] = species on record: Rattus norvegicus; test: Antiinflammatory activity in carrageenan model, activity is expressed as ED50 values; type: functional
Rattus norvegicus [12] = test: Antiinflammatory activity evaluated by measuring % reduction of edema, 3h after oral administration of 25 mg/kg in carrageenan model; type: functional
Rattus norvegicus [13] = test: Antiinflammatory activity evaluated by measuring % reduction of edema, 3h after oral administration of 50 mg/kg in carrageenan model; type: functional
Rattus norvegicus [14] = test: Antiinflammatory activity evaluated by measuring % reduction of edema, 3h after oral administration of 10 mg/kg in carrageenan model; type: functional
Rattus norvegicus [15] = test: Percent reduction of edema in rat on 23rd day after oral administration of 20 mg/kg in antiarthritis assay; type: functional
Rattus norvegicus [16] = species on record: Rattus norvegicus; test: Median ulcerogenic dose was determined; type: functional
Rattus norvegicus [17] = test: Ulcer index at 100 mg/kg concentration; type: functional
Rattus norvegicus [18] = test: Ulcer index at 50 mg/kg concentration; type: functional
Rattus norvegicus [19] = test: Ulcer index at 200 mg/kg concentration; type: functional
Rattus norvegicus [20] = test: Percent reduction of edema in rat on 23rd day after oral administration of 30 mg/kg in antiarthritis assay; i = Inactive; type: functional, organism-based; design: dose 30 mg/kg; conditions: at 30 mg/kg
Mus musculus [21] = test: Percent reduction of edema in mice 3h after oral administration of 30 mg/kg in carrageenan model; type: functional

CCCCC1C(=O)N(c2ccccc2)N(c2ccccc2)C1=O [PHENYLBUTAZONE]
Reduction (Mus musculus [1]): 52.9%
Analgesic effect (Mus musculus [2]): 57.7%
Analgesic effect (Mus musculus [3]): 73%
Acute toxicity (Mus musculus [4]): 0
Acute toxicity (Mus musculus [5]): 2
Acute toxicity (Mus musculus [6]): 4
Acute toxicity (Mus musculus [7]): 7
LD50 [8]: 238 mg/kg
selectivity ratio [9]: 18.2
ED50 (Rattus norvegicus [10]): 274 mg/kg
ED50 (Rattus norvegicus [11]): 13.1 mg/kg
Reduction (Rattus norvegicus [12]): 52.9%
Reduction (Rattus norvegicus [13]): 62.9%
Reduction (Rattus norvegicus [14]): 48.7%
Reduction (Rattus norvegicus [15]): 20.7%
UD50 (Rattus norvegicus [16]): 72.4 mg/kg
UI (Rattus norvegicus [17]): 2.55
UI (Rattus norvegicus [18]): 1.35
UI (Rattus norvegicus [19]): 3.2

CCOC(=O)/C=C/n1ccc(=O)n2nc(-c3ccccc3)cc12
Reduction (Rattus norvegicus [20]): inactive
Reduction (Mus musculus [21]): 23.4%

CCCCn1ccc(=O)n2nc(-c3ccccc3)cc12
Reduction (Mus musculus [1]): 26.6%
Reduction (Rattus norvegicus [15]): 59.8%

CCn1ccc(=O)n2nc(-c3ccccc3)c(SC#N)c12
Reduction (Rattus norvegicus [20]): inactive
Reduction (Mus musculus [21]): 42.2%

CCn1ccc(=O)n2nc(-c3ccc(C)cc3)cc12
Reduction (Rattus norvegicus [20]): inactive
Reduction (Mus musculus [21]): 35.9%

CCCn1c(=O)ccn2nc(-c3ccccc3)cc12
Reduction (Rattus norvegicus [20]): inactive
Reduction (Mus musculus [21]): 18.9%
